{"source": "patent US9963498B2", "about": "“Peptides that inhibit syndecan-1 activation of VLA-4 and IGF-1R” (Wisconsin Alumni Research Foundation, priority 2016, dated 2018)", "key": {"[1]": {"test": "SSTN stability assay in mouse serum", "format": "in vitro ADME", "conditions": "for stability in serum (in words): mouse (rodent) serum, up to 72 hr; for stability in serum (in words) / stability (activity retained): 37° C.; for stability (activity retained): mouse serum, 3 days (SSTNIGF1R: more than 3 days)", "procedure": "FIG. 16. SSTNI/V IS STABLE IN RODENT SERUM, EQUIVALENT TO SSTNIGF1R AND SSTNVLA4. SSTNI/V, SSTNIGF1R and SSTNVLA4 were incubated at 37° C. for up to 72 hr in mouse serum. Note that rodent serum is known to contain substantial proteolytic activity against peptides. A GRGDSP integrin-inhibitory peptide was used as control, tested against endothelial cell adhesion to fibronectin. Either myeloma cell viability, or endothelial cell adhesion to IIICS fragment was used to test the activity of the SSTN peptides. SSTN peptides were used at up to 30 μM, and the GRGDSP peptide was used up to 1 mM. Activity observed in the assays was plotted against a standard curve to determine relative activity.\n(§1) For stability assays, SSTNIGF1R, SSTNVLA4, SSTNI/V and GRGDSP peptide (SEQ ID NO:31; EMD Millipore) were incubated in human plasma (obtained from the UW-Madison Hospital Blood Bank) for 0, 8, 24 or 72 hr, then tested in the endothelial cell adhesion assay or cell viability assay and compared to a standard curve generated using fresh peptide."}, "[2]": {"test_system": "M21 murine melanoma cells", "test": "Melanoma cell invasion through filters coated with fibronectin", "format": "cell-based, mouse", "conditions": "16 hr, 30 μM peptide", "procedure": "FIG. 17. […] M21 murine melanoma cells are allowed to migrate for 16 hr through filters coated with fibronectin. The relative roles of the αvβ3 integrin and the α4β1 integrin (VLA-4) are determined using blocking antibodies to αv and α4 integrin subunits, or both antibodies combined."}, "[3]": {"test_system": "B78 murine melanoma cells", "test": "Melanoma cell survival (trypan blue exclusion)", "format": "cell-based, mouse", "conditions": "up to 72 hr, 30 μM", "procedure": "FIG. 18. SSTNI/V BLOCKS SURVIVAL OF MOUSE MELANOMA CELLS. B78 murine melanoma cells grown in serum-containing DMEM are incubated for up to 72 hr in 30 μM SSTNVLA4, SSTNIGF1R or SSTNI/V, then viable cells were quantified by trypan blue exclusion.\nAll cells were cultured at 37° C. and 92.5% air/7.5% CO2. The derivation and culture of CAG myeloma and HMEC-1 cells are described previously (Ades et al. 1992, Rapraeger et al. 2013). B78 murine melanoma cells were kindly provided by Dr. Sondel, Department of Pediatrics, University of Wisconsin-Madison. All cells are routinely screened for mycoplasma contamination. For viability studies, 2.5×10^4 myeloma cells/well or 10^4 B78 murine melanoma cells were plated in 96-well plates in complete DMEM containing 10% calf serum in the presence or absence of SSTN peptides for 24, 48 or 72 hrs. Numbers of viable cells were then determined by addition of CellTiter-GLO reagent to the culture medium as described by the manufacturer and viable cells determined by staining with 0.4% trypan blue and counting cells that exclude (viable) or take up (dead) the stain."}, "[4]": {"test_system": "CAG myeloma, mouse M21 melanoma, human microvascular endothelial and Jurkat T-lymphoma cells", "test": "Cell adhesion to VCAM-1", "format": "cell-based", "conditions": "2 hr, 30 μM", "procedure": "(§2) FIGS. 11A, 11B, 11C, and 11D. […] 11A. CAG myeloma, mouse M21 melanoma, human microvascular endothelial and Jurkat T-lymphoma cells are plated on VCAM-1 for 2 hr in the presence or absence of 30 μM SSTNVLA4 or VLA-4 blocking antibody as a test of specificity. Numbers of adherent cells are quantified and expressed as a percentage of control, untreated cells in FIG. 11B. 11C. Cells are plated on top of filters coated with VCAM-1 allowed to migrate for 16 hr in the presence or absence of 30 μM SSTNVLA4. Cells accumulating on the bottom of the filters are visualized by staining. 11D. Expression level of Sdc1 and VLA-4 are shown by Western blot staining of mouse natural killer (NK) and T-cells harvested from mouse spleens."}, "[5]": {"test_system": "myeloma, melanoma, microvascular endothelial and T-lymphoma cells", "test": "Migration through filters coated with VCAM-1", "format": "cell-based", "conditions": "16 hr, 30 μM", "procedure": "as §2"}, "CAG myeloma cells": {"test_system": "CAG myeloma cells", "conditions": "CAG myeloma cells plated on FN for 2.5 hr; 0, 0.3, 3, or 30 μM; modified from Jung et al. 2016; cited from earlier work"}, "HMEC-1": {"test_system": "HMEC-1", "conditions": "16 h, 30 μM; modified from Jung et al. 2016; cited from earlier work"}, "VEGFR2": {"test_system": "VEGFR2", "conditions": "2 h on IIICS, 10 μM; modified from Jung et al. 2016; cited from earlier work"}, "HMEC-1 cells": {"test_system": "HMEC-1 cells", "conditions": "20 ng/ml VEGF, 30 μM, 24 h; modified from Jung et al. 2016; cited from earlier work"}, "[6]": {"test": "SSTN stability assay in human plasma", "format": "in vitro ADME", "conditions": "more than 3 days at 37° C.", "procedure": "as §1"}, "[7]": {"test": "SSTN stability in bovine serum", "format": "in vitro ADME", "conditions": "more than 3 days at 37° C."}, "[8]": {"conditions": "Beauvais et al., 2016; plasma species not printed at the place; cited from earlier work"}, "[9]": {"conditions": "Beauvais et al., 2016; cited from earlier work"}, "[10]": {"test_system": "CAG myeloma tumor xenografts", "conditions": "nude mice, Alzet pumps 0.365 mg/kg/day, 4 weeks; modified from Beauvais et al. 2016; cited from earlier work"}, "[11]": {"test_system": "Apoptosis signal regulating kinase-1 (ASK1)", "conditions": "CAG or MM.1R myeloma cells, 6 hr, 10 μM; modified from Beauvais et al. 2016; cited from earlier work"}, "[12]": {"test_system": "UM-SCC47, SCC25, MDA-MB-468, MDA-MB-231, MCF-7 and SKBr3 carcinoma cells", "conditions": "3, 10 or 30 μM, 3 days; Beauvais et al. 2016; cited from earlier work"}, "[13]": {"test_system": "HaCaT keratinocytes and MCF10A breast epithelial cells", "conditions": "3, 10 or 30 μM, 3 days; Beauvais et al. 2016; cited from earlier work"}, "[14]": {"test_system": "angiogenesis in the mouse cornea", "conditions": "induced by FGF in the mouse cornea; Beauvais et al., 2009; cited from earlier work"}}, "note": "Entries after “also recorded” stand apart in the source; their conditions may differ. Where no end group is shown, it is not given here."}
{"molecule": "N=C(N)NCCC[C@H](NC(=O)CN)C(=O)NCC(=O)N[C@@H](CC(=O)O)C(=O)N[C@@H](CO)C(=O)N1CCC[C@H]1C(=O)O", "note": "[GRGDSP]", "values": [{"measurement": "time to complete inactivation", "setting": "[1]; control peptide, tested by endothelial cell adhesion to fibronectin", "result": "≤ 8", "unit": "h"}, {"measurement": "stability in serum (in words)", "setting": "[1]", "result": "destroyed within a matter of a few hr"}]}
{"molecule": "SSTNVLA4: peptide mimetic of the VLA-4 binding site of Sdc1, comprised of amino acids 210-233 (or 210-221) (DFTFETSGENTAVVAVEPDRRNQS)", "values": [{"measurement": "stability (activity retained)", "setting": "[1]", "result": 100, "unit": "%"}, {"measurement": "block of melanoma cell invasion", "setting": "[2]", "result": "partially block; also recorded: partial block"}, {"measurement": "melanoma cell survival", "setting": "[3]", "result": "only a minimal effect; also recorded: only minimally"}, {"measurement": "binding of cells to the VLA-4 ligand VCAM-1", "setting": "[4]", "result": "prevented"}, {"measurement": "invasion of cells through VCAM-1-coated filters", "setting": "[5]", "result": "BLOCKS THE INVASION"}, {"measurement": "invasion of cells through VCAM-1-coated filters", "setting": "[5]; listed as SSTNVLA-4", "result": "prevented"}, {"measurement": "VLA-4-mediated adhesion of myeloma cells", "setting": "CAG myeloma cells", "result": "displaced from VLA-4 ligands; also recorded: BLOCKS"}, {"measurement": "endothelial cell invasion", "setting": "HMEC-1", "result": "BLOCKS"}, {"measurement": "VEGFR2 activation", "setting": "VEGFR2", "result": "BLOCKS"}, {"measurement": "tube formation", "setting": "HMEC-1 cells", "result": "prevents the angiogenic phenotype; also recorded: BLOCKS"}]}
{"molecule": "LPAGEGPKEGEAVVLPEVEPGLTAREQDFTFETSGENTA [SSTNI/V]", "values": [{"measurement": "stability in serum (in words)", "setting": "[1]", "result": "highly stable; also recorded: same remarkable stability"}, {"measurement": "stability (activity retained)", "setting": "[1]", "result": 100, "unit": "%"}]}
{"molecule": "SSTNIGF1R: peptide mimetic of the Sdc1 docking site (aa93-120 in human Sdc1) that captures IGF-1R and the αvβ3 or αvβ5 integrin", "values": [{"measurement": "stability (activity retained)", "setting": "[1]", "result": 100, "unit": "%"}, {"measurement": "stability (activity retained)", "setting": "[6]", "result": 100, "unit": "%"}, {"measurement": "stability (activity retained)", "setting": "[7]", "result": 100, "unit": "%"}, {"measurement": "block of melanoma cell invasion", "setting": "[2]", "result": "partially block; also recorded: partial block"}, {"measurement": "melanoma cell survival", "setting": "[3]", "result": "killed; also recorded: blocked"}, {"measurement": "stability when incubated in plasma", "setting": "[8]", "result": "remarkable stability"}, {"measurement": "half-life in vivo", "setting": "[9]", "result": "ca. 27 hr"}, {"measurement": "growth of myeloma tumors", "setting": "[10]", "result": "INHIBITS GROWTH"}, {"measurement": "ASK-1 activation", "setting": "[11]", "result": "ACTIVATES"}, {"measurement": "growth of carcinoma cells", "setting": "[12]", "result": "BLOCKS THE GROWTH"}, {"measurement": "growth of normal epithelial cells", "setting": "[13]", "result": "not affected and NOT"}, {"measurement": "abnormal angiogenesis in vivo", "setting": "[14]", "result": "block abnormal angiogenesis"}]}
